This note sets out measurements from ChEMBL document CHEMBL1132910, “SAR of 4-hydroxypiperidine and hydroxyalkyl substituted heterocycles as novel p38 map kinase inhibitors” (Bioorg Med Chem Lett, 2000).

Each structure is given as a SMILES string. A value given as a limit tells only on which side of the number the result lay.

For orientation: IC50 means the concentration at which inhibition is half-maximal. Lower therefore signals inhibition by little substance. One may read the Cmax as the maximum level reached in the sampled fluid or tissue. By bioavailability is commonly meant the share of a dose that reaches the circulation, judged against a reference dose that is usually intravenous. A low value points to little systemic uptake. In general, inhibition in vivo refers to the change of the read-out against control, counted positive when it falls. By ED50 is commonly meant the midpoint of the dose-response relation. Read a high ED50 as weaker potency.

Data set [1] addresses Mitogen-activated protein kinase 14 (Mus musculus, UniProt P47811). Briefly: Inhibition of murine p38 alpha MAP kinase.
Data set [2] addresses T1, Prostaglandin G/H synthase 1 (Ovis aries, UniProt P05979).
T1 sequence (P05979 whole entry): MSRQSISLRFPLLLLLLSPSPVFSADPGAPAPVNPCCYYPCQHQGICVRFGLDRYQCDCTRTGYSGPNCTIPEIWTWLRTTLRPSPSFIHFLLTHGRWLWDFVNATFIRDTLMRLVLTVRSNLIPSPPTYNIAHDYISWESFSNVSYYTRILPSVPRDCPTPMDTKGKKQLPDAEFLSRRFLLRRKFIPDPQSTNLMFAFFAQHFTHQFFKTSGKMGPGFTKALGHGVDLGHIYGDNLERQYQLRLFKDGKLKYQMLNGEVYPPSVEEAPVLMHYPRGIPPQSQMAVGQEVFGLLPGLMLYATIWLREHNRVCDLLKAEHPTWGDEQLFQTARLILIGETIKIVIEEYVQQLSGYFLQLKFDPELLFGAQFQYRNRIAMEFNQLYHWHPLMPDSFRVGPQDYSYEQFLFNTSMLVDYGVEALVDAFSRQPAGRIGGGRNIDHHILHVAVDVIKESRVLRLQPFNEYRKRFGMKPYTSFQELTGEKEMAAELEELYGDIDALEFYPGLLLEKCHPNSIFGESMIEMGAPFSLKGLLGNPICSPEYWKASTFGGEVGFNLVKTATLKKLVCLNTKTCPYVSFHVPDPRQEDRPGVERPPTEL
Kind of data set: Inhibition of Prostaglandin G/H synthase 1, COX-1.

Data set [3] in a line: Cmax value at a oral dose of […] mg/kg. The settings on record: in vivo, 20 mg/kg. The class given is ADME, organism-based.
The nature of data set [4]: Bioavailability. The class given is ADME, organism-based. The settings on record: eutheria, in vivo.
The target in data set [5] is Epidermal growth factor receptor (Homo sapiens, UniProt P00533). Briefly: Inhibition of EGFR kinase.
Data set [6] concerns the target Mitogen-activated protein kinase 1 (Mus musculus, UniProt P63085). Briefly: Inhibition of ERK2 kinase.
Data set [7] has as its target Mitogen-activated protein kinase 9 (Homo sapiens, UniProt P45984). Kind of data set: Inhibition of JNK2 kinase.
Data set [8] deals with Mitogen-activated protein kinase 8 (Homo sapiens, UniProt P45983). Kind of data set: Inhibition of JNK1 kinase.
The target of data set [9] is T2, Dual specificity mitogen-activated protein kinase kinase 6 (Homo sapiens, UniProt P52564).
T2 sequence (P52564 whole entry): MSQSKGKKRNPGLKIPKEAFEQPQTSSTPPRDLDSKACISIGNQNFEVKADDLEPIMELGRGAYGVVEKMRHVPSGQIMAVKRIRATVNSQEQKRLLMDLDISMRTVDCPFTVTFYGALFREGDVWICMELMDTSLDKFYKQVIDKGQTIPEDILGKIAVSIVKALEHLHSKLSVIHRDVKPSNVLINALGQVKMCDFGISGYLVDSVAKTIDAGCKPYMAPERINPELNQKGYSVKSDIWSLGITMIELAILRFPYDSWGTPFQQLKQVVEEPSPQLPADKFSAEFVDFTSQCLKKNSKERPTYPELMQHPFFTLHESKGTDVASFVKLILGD
Kind of data set: Inhibition of MKK6b kinase.

Data set [10] concerns Mus musculus. Kind of data set: (§1) Inhibition of LPS-induced TNF-alpha release in mice at 20 mg/kg. More on the design: dose 20 mg/kg. The class given is functional, organism-based.
The subject of data set [11] is Mus musculus. Described as §1. The class given is functional.
In data set [12] the target is Protein kinase C alpha type (Bos taurus, UniProt P04409). Kind of data set: Inhibition of PKCalpha kinase.
The subject of data set [13] is Rattus norvegicus. Briefly: Effect on collagen induced arthritis in rats at 25 mg/kg peroral dose twice daily over 10 days. The data set is classed as functional. The settings on record: route oral.
Data set [14] relates to Rattus norvegicus. Kind of data set: Effect on adjuvant induced arthritis in rats at 25 mg/kg peroral dose twice daily over 10 days. The note with it: 240 h, route oral. The data set is classed as functional.
Data set [15] deals with Tyrosine-protein kinase ABL1 (Mus musculus, UniProt P00520). Briefly: Inhibition of c-abl kinase.
The target of data set [16] is Proto-oncogene tyrosine-protein kinase Src (Gallus gallus, UniProt P00523). Briefly: Inhibition of c-src kinase.
In data set [17] the target is Mitogen-activated protein kinase 11 (Homo sapiens, UniProt Q15759). Briefly: Inhibition of human p38 beta MAP kinase.
Data set [18] addresses T3, Mitogen-activated protein kinase 13 (Homo sapiens, UniProt O15264).
T3 sequence (O15264 whole entry): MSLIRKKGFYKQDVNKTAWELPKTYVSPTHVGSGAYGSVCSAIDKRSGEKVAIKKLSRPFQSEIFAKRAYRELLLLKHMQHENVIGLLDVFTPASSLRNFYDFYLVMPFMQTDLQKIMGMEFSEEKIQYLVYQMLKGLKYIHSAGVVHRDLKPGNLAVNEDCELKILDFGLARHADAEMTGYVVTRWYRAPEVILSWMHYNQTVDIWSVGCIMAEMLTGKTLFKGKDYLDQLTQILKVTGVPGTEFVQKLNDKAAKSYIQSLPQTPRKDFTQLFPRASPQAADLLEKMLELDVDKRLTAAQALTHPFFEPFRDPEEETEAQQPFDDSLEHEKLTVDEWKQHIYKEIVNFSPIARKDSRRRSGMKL
Kind of data set: Inhibition of human p38 delta MAP kinase.

Chain of Mitogen-activated protein kinase 14 (P47811 whole entry): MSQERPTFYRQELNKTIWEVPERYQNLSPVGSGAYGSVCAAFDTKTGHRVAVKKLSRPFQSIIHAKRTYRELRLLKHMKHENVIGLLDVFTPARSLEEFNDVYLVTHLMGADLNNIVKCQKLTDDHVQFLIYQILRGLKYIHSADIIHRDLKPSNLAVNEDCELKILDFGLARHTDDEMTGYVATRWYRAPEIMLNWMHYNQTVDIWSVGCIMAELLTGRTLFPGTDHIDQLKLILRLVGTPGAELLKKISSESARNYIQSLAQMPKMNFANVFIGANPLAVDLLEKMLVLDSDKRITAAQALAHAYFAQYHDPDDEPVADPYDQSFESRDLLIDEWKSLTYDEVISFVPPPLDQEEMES
Chain of Tyrosine-protein kinase ABL1 (P00520 whole entry): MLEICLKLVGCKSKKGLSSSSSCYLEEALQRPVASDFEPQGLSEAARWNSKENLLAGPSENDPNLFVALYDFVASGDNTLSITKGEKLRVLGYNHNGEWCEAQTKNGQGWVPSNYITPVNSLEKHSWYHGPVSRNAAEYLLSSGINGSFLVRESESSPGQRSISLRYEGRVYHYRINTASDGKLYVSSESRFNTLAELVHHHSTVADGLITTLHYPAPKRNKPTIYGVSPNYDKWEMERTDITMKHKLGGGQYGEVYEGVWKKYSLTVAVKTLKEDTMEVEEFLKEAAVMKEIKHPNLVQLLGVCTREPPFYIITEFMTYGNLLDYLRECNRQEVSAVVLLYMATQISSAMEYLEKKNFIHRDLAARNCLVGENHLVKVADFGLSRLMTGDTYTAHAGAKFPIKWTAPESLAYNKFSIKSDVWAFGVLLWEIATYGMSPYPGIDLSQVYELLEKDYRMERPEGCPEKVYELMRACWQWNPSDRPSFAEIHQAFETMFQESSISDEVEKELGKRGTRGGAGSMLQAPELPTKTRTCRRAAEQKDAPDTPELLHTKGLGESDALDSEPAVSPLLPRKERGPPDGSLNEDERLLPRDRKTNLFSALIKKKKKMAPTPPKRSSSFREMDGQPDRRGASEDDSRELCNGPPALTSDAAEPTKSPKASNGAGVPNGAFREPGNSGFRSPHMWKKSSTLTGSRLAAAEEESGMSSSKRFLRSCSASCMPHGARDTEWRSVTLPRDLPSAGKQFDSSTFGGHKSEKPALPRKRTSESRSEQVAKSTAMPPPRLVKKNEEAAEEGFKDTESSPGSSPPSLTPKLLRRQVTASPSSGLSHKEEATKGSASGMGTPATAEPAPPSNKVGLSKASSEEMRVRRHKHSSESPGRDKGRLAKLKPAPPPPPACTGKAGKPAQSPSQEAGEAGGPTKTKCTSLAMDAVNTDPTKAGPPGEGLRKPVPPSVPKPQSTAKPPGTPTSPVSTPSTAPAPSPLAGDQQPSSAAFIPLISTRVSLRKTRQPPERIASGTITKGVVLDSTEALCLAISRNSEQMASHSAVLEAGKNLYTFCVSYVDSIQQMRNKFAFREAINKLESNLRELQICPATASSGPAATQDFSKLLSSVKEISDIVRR
Chain of Mitogen-activated protein kinase 8 (P45983 whole entry): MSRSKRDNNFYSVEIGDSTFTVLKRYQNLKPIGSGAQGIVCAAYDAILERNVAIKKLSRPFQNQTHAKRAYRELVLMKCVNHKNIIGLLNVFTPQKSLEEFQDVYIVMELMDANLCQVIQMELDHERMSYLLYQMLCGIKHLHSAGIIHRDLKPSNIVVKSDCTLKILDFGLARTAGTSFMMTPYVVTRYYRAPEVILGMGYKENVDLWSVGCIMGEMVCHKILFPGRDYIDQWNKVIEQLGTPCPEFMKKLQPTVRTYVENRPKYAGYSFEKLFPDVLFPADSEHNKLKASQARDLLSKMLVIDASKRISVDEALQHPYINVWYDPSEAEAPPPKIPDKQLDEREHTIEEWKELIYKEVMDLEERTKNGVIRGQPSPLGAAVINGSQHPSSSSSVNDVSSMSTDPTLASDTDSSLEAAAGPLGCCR
Chain of Mitogen-activated protein kinase 11 (Q15759 whole entry): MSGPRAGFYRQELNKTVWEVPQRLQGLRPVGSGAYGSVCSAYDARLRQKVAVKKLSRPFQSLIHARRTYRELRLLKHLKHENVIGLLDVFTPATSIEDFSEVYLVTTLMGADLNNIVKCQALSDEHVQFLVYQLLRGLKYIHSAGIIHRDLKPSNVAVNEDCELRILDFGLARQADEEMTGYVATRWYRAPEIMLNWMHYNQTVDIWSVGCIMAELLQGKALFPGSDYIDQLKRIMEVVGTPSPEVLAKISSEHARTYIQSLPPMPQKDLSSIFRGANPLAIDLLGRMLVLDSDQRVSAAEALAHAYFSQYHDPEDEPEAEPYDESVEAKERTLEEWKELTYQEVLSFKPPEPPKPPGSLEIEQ
Chain of Mitogen-activated protein kinase 1 (P63085 whole entry): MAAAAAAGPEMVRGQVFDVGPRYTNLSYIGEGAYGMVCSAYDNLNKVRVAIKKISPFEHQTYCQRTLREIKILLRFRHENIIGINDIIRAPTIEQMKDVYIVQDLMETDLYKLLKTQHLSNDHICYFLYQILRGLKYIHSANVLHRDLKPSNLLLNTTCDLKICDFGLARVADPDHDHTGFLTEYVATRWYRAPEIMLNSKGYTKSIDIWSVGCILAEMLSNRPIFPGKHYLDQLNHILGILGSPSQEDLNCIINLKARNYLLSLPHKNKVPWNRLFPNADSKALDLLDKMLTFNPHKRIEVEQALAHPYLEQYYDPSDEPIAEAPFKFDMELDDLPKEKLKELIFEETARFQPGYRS
Chain of Epidermal growth factor receptor (P00533 whole entry): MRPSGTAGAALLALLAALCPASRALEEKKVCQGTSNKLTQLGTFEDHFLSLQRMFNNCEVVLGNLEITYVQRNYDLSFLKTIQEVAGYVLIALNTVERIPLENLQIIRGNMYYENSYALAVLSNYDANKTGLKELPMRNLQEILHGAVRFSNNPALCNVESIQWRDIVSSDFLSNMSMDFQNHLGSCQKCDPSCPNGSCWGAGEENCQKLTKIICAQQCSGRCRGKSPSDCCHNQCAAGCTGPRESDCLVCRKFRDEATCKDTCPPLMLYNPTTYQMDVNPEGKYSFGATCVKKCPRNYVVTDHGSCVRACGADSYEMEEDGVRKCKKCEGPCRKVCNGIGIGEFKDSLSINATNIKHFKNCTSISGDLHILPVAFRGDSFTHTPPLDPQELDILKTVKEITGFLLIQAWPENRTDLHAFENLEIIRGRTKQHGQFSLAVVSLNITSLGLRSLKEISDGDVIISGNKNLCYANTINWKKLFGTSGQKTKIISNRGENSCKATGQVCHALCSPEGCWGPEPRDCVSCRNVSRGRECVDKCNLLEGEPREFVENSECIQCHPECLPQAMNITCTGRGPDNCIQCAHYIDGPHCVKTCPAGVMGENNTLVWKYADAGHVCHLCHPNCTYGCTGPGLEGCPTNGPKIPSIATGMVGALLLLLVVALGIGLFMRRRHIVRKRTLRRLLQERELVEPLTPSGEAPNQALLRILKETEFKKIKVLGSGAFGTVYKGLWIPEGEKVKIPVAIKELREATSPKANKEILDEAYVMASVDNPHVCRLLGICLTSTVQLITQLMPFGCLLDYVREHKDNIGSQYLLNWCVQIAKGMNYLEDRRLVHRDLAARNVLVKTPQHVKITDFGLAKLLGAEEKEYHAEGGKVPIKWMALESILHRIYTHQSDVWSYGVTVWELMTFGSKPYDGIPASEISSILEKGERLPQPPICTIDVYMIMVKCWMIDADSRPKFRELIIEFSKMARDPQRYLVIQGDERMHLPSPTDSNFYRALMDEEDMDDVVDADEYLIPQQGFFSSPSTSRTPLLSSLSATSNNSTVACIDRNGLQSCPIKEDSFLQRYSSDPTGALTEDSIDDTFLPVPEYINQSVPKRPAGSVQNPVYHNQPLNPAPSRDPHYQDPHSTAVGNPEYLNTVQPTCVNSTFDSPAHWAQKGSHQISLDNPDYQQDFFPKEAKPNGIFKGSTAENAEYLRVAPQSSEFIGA
Chain of Mitogen-activated protein kinase 9 (P45984 whole entry): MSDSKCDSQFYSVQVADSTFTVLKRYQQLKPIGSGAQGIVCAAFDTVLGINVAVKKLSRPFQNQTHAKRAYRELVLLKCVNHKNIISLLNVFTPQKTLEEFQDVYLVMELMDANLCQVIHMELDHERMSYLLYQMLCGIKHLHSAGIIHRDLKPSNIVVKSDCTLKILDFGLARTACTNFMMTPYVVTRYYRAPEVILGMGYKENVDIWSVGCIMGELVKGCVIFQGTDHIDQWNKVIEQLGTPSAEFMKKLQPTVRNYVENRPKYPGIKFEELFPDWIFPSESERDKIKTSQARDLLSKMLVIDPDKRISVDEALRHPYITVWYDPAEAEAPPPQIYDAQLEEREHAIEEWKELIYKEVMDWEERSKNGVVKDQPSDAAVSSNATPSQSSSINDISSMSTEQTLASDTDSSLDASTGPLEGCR

As for `OC1(c2nc(-c3ccncc3)c(-c3ccc(F)cc3)[nH]2)CC1`, the IC50 in data set [1] amounted to 20 nM; in data set [2], 40000 nM.

`CN1CCC(O)(c2nc(-c3ccc(F)cc3)c(-c3ccncc3)o2)CC1` returned a Cmax in data set [3] of 1960 nM. Moreover, in [4], the bioavailability stood at 65%. Moreover, the IC50 in data set [5] is 797 nM; in [6], more than 10000 nM; in data set [7], 8090 nM; in data set [8] it was more than 10000 nM; in [9] it was more than 100000 nM; in the data set with Mus musculus [10], 180 nM. For the same compound, the IC50 in data set [12] is 51100 nM; in data set [15], 86800 nM; in [16], 22700 nM; in [1] it was 350 nM; in data set [17] it was 2410 nM; in data set [18], more than 10000 nM. This compound gave a half-maximal inhibitory concentration (IC50) in [2] of more than 100000 nM. This compound yielded an inhibition in vivo at 20 mg/kg in the data set on Mus musculus [11] of 50%. Besides, the ED50 in the data set with Rattus norvegicus [13] stood at 20 mg/kg/day. In addition, in the data set on Rattus norvegicus [14], the inhibition in vivo at 25 mg/kg worked out at 40%.

With `OC1(c2nc(-c3ccncc3)c(-c3ccc(F)cc3)[nH]2)CCCCC1`, the IC50 in [1] was determined as 120 nM; in data set [2] it was 6300 nM.

In the case of `OC1(c2nc(-c3ccncc3)c(-c3ccc(F)cc3)[nH]2)CCCCCC1`, the IC50 was 76 nM in [1] and 200 nM in data set [2].

`CN1CCC(O)(c2nc(-c3ccc(F)cc3)c(-c3ccncc3)s2)CC1`: the 50% inhibitory concentration (IC50) in the data set on Mus musculus [10] was found to be 145 nM; in data set [1] it was 450 nM; in data set [2] it was 73000 nM. 20 mg/kg produced 0% inhibition in vivo in the data set on Mus musculus [11].

Consider `CC(C)(C)c1nc(-c2ccncc2)c(-c2ccccc2)[nH]1`, for which the values for the IC50 in [1] and in data set [2] were 450 nM and 5000 nM, respectively.

In the case of `OC1(c2nc(-c3ccncc3)c(-c3ccc(F)cc3)[nH]2)CCC1`, the values for the IC50 in data set [1] and in [2] were 150 nM and 20000 nM, respectively.

For the compound `CN1CCC(O)(c2nc(-c3ccc(F)cc3)c(-c3ccncc3)[nH]2)CC1`, in data set [3], the peak level (Cmax) was 400 nM. Further, in data set [4], the bioavailability was 23%. Moreover, the IC50 is 15 nM in the data set on Mus musculus [10], 90 nM in data set [1] and more than 100000 nM in data set [2]. Also, in the data set with Mus musculus [11], the inhibition in vivo at 20 mg/kg turned out to be 77%. The inhibition in vivo at 25 mg/kg with Rattus norvegicus [14] is 23%.

Consider `CN1CCC(O)(c2cc(-c3ccncc3)c(-c3ccc(F)cc3)[nH]2)CC1`, for which the half-maximal inhibitory concentration (IC50) with Mus musculus [10] is 125 nM; in [1], 130 nM; in data set [2] it was more than 100000 nM. The compound further showed an inhibition in vivo at 20 mg/kg with Mus musculus [11] of 18%.

As to `CC(C)(O)c1nc(-c2ccncc2)c(-c2ccc(F)cc2)[nH]1`, the results for the concentration for half-maximal inhibition (IC50) in [1] and in data set [2] were 470 nM and 87000 nM, respectively.

As for `OC1(c2nc(-c3ccncc3)c(-c3ccc(F)cc3)[nH]2)CCCC1`, the IC50 in data set [1] is 80 nM; in [2], 3000 nM.

In [1], `CN1CCC(O)(c2nc(-c3ccncc3)c(-c3ccc(F)cc3)o2)CC1` gave a 50% inhibitory concentration (IC50) of 2000 nM.
